Some results are limits rather than exact numbers.

A short description of the first assay: Inhibition of [3H]-SP radioligand binding to NK1 receptor from bovine retina.
As a reminder, the IC50 is the point on the concentration scale where inhibition reaches its midpoint. A lower IC50 goes with greater potency in that assay. For the molecule `Cc1cc(C)cc(C(=O)N2CC[C@H](NCc3cnc4ccccc4c3)C[C@H]2Cc2ccccc2)c1` [{(2R,4S)-2-Benzyl-4-[(quinolin-3-ylmethyl)-amino]-piperidin-1-yl}-(3,5-dimethyl-phenyl)-methanone], the 50% inhibitory concentration (IC50) came to 30 nM.

Another assay is described as follows: Compound was tested for inhibition of NK1 receptor from gerbil midbrain; NT means not tested.
On to `O=C(c1cccc(Cl)c1)N1CC[C@H](NCc2ccnc3ccccc23)C[C@H]1Cc1ccccc1` [{(2R,4S)-2-Benzyl-4-[(quinolin-4-ylmethyl)-amino]-piperidin-1-yl}-(3-chloro-phenyl)-methanone], for which the IC50 worked out at 54 nM.
For `O=C(Cc1ccccc1)N1CC[C@H](NCc2ccnc3ccccc23)C[C@H]1Cc1ccccc1` [1-{(2R,4S)-2-Benzyl-4-[(quinolin-4-ylmethyl)-amino]-piperidin-1-yl}-2-phenyl-ethanone], the IC50 was 3300 nM.
`Cc1cc(C)cc(C(=O)N2CC[C@H](NCc3cc4ccccc4cn3)C[C@H]2Cc2ccccc2)c1` [{(2R,4S)-2-Benzyl-4-[(isoquinolin-3-ylmethyl)-amino]-piperidin-1-yl}-(3,5-dimethyl-phenyl)-methanone] gave a 50% inhibitory concentration (IC50) of 19 nM.
The molecule `Cc1cc(C)cc(C(=O)N2CC[C@H](NCc3ccccc3)C[C@H]2Cc2ccccc2)c1` [((2R,4S)-2-Benzyl-4-benzylamino-piperidin-1-yl)-(3,5-dimethyl-phenyl)-methanone] showed a half-inhibitory concentration (IC50) of 220 nM.
On to `O=C(c1cc(C(F)(F)F)cc(C(F)(F)F)c1)N1CC[C@H](NCc2ccnc3ccccc23)C[C@H]1Cc1ccccc1` [{(2R,4S)-2-Benzyl-4-[(quinolin-4-ylmethyl)-amino]-piperidin-1-yl}-(3,5-bis-trifluoromethyl-phenyl)-methanone], for which the IC50 is 17 nM.
For the molecule `O=S(=O)(c1cc(C(F)(F)F)cc(C(F)(F)F)c1)N1CC[C@H](NCc2ccnc3ccccc23)C[C@H]1Cc1ccccc1` [[(2R,4S)-2-Benzyl-1-(3,5-bis-trifluoromethyl-benzenesulfonyl)-piperidin-4-yl]-quinolin-4-ylmethyl-amine], the half-inhibitory concentration (IC50) is > 10000 nM.
The molecule `COc1cc(CC(=O)N[C@H]2CCN(C(=O)c3cc(C)cc(C)c3)[C@H](Cc3ccccc3)C2)cc(OC)c1` [N-[(2R,4S)-2-Benzyl-1-(3,5-dimethyl-benzoyl)-piperidin-4-yl]-2-(3,5-dimethoxy-phenyl)-acetamide] returned a concentration for half-maximal inhibition (IC50) of 12 nM.
Same read-out and setting: as for `CN(C)CCCOC(=O)N[C@H]1CCN(C(=O)c2cc(C(F)(F)F)cc(C(F)(F)F)c2)[C@H](Cc2ccccc2)C1` [[(2R,4S)-2-Benzyl-1-(3,5-bis-trifluoromethyl-benzoyl)-piperidin-4-yl]-carbamic acid 3-dimethylamino-propyl ester], the figure is 11 nM.
Same read-out and setting: as for `O=C(Cc1ccccc1)N[C@H]1CCN(C(=O)c2cc(Cl)cc(Cl)c2)[C@H](Cc2ccccc2)C1` [N-[(2R,4S)-2-Benzyl-1-(3,5-dichloro-benzoyl)-piperidin-4-yl]-2-phenyl-acetamide], the figure is 60 nM.
With `O=C(c1cccc2ccccc12)N1CC[C@H](NCc2ccnc3ccccc23)C[C@H]1Cc1ccccc1` [{(2R,4S)-2-Benzyl-4-[(quinolin-4-ylmethyl)-amino]-piperidin-1-yl}-naphthalen-1-yl-methanone], inhibition was half-maximal at 110 nM (IC50).
On the same count and under the same terms, in the case of `NC(=O)CN[C@H]1CCN(C(=O)c2cc(C(F)(F)F)cc(C(F)(F)F)c2)[C@H](Cc2ccccc2)C1` [2-[(2R,4S)-2-Benzyl-1-(3,5-bis-trifluoromethyl-benzoyl)-piperidin-4-ylamino]-acetamide] it was 10 nM; in that of `Cc1cc(C)cc(C(=O)N2CC[C@H](NCc3ccncc3)C[C@H]2Cc2ccccc2)c1` [{(2R,4S)-2-Benzyl-4-[(pyridin-4-ylmethyl)-amino]-piperidin-1-yl}-(3,5-dimethyl-phenyl)-methanone], 210 nM.
Consider `O=C(c1cc(O)cc(O)c1)N1CC[C@H](NCc2ccnc3ccccc23)C[C@H]1Cc1ccccc1` [{(2R,4S)-2-Benzyl-4-[(quinolin-4-ylmethyl)-amino]-piperidin-1-yl}-(3,5-dihydroxy-phenyl)-methanone], for which the IC50 was 520 nM.
Consider `COc1cc(OC)cc(C(=O)N2CC[C@H](NCc3ccnc4ccccc34)C[C@H]2Cc2ccccc2)c1` [{(2R,4S)-2-Benzyl-4-[(quinolin-4-ylmethyl)-amino]-piperidin-1-yl}-(3,5-dimethoxy-phenyl)-methanone], for which it took 92 nM to reach half-maximal inhibition (IC50).
The molecule `O=C(c1cc(Cl)cc(Cl)c1)N1CC[C@H](NCc2ccnc3ccccc23)C[C@H]1Cc1ccccc1` [{(2R,4S)-2-Benzyl-4-[(quinolin-4-ylmethyl)-amino]-piperidin-1-yl}-(3,5-dichloro-phenyl)-methanone] returned an IC50 of 26 nM.
`FC(F)(F)c1cc(CN2CC[C@H](NCc3ccnc4ccccc34)C[C@H]2Cc2ccccc2)cc(C(F)(F)F)c1` [[(2R,4S)-2-Benzyl-1-(3,5-bis-trifluoromethyl-benzyl)-piperidin-4-yl]-quinolin-4-ylmethyl-amine] registered an IC50 of 880 nM.
In turn, `CN(Cc1ccnc2ccccc12)[C@H]1CCN(C(=O)c2cc(Cl)cc(Cl)c2)[C@H](Cc2ccccc2)C1` [[(2R,4S)-2-Benzyl-4-(methyl-quinolin-4-ylmethyl-amino)-piperidin-1-yl]-(3,5-dichloro-phenyl)-methanone] gave an IC50 of 390 nM.
`O=C(Nc1ccccc1)N[C@H]1CCN(C(=O)c2cc(Cl)cc(Cl)c2)[C@H](Cc2ccccc2)C1` [1-[(2R,4S)-2-Benzyl-1-(3,5-dichloro-benzoyl)-piperidin-4-yl]-3-phenyl-urea] gave a concentration for half-maximal inhibition (IC50) of 72 nM.
`O=C(c1ccc2ccccc2c1)N1CC[C@H](NCc2ccnc3ccccc23)C[C@H]1Cc1ccccc1` [{(2R,4S)-2-Benzyl-4-[(quinolin-4-ylmethyl)-amino]-piperidin-1-yl}-naphthalen-2-yl-methanone]: the IC50 amounted to 700 nM.
Regarding `O=C(c1cc(Br)cc(Br)c1)N1CC[C@H](NCc2ccnc3ccccc23)C[C@H]1Cc1ccccc1` [{(2R,4S)-2-Benzyl-4-[(quinolin-4-ylmethyl)-amino]-piperidin-1-yl}-(3,5-dibromo-phenyl)-methanone], inhibition was half-maximal at 24 nM (IC50).
With `CC(C)NC(=O)N[C@H]1CCN(C(=O)c2cc(C(F)(F)F)cc(C(F)(F)F)c2)[C@H](Cc2ccccc2)C1` [1-[(2R,4S)-2-Benzyl-1-(3,5-bis-trifluoromethyl-benzoyl)-piperidin-4-yl]-3-isopropyl-urea], inhibition was half-maximal at 20 nM (IC50).
Molecule `O=C(c1cc(Cl)cc(Cl)c1)N1CC[C@H](N(Cc2ccnc3ccccc23)C(=O)C(F)(F)F)C[C@H]1Cc1ccccc1` [N-[(2R,4S)-2-Benzyl-1-(3,5-dichloro-benzoyl)-piperidin-4-yl]-2,2,2-trifluoro-N-quinolin-4-ylmethyl-acetamide] yielded an IC50 of 600 nM.
`NCC(=O)N[C@H]1CCN(C(=O)c2cc(C(F)(F)F)cc(C(F)(F)F)c2)[C@H](Cc2ccccc2)C1` [2-Amino-N-[(2R,4S)-2-benzyl-1-(3,5-bis-trifluoromethyl-benzoyl)-piperidin-4-yl]-acetamide] showed an IC50 of 62 nM.

A short description of another assay: Compound was tested for inhibition of [125I]eledoisin radioligand binding to NK3 receptor from gerbil cortex.
Consider `Cc1cc(C)cc(C(=O)N2CC[C@H](NCc3cnc4ccccc4c3)C[C@H]2Cc2ccccc2)c1` [{(2R,4S)-2-Benzyl-4-[(quinolin-3-ylmethyl)-amino]-piperidin-1-yl}-(3,5-dimethyl-phenyl)-methanone], for which the IC50 stood at 10000 nM.

These data come from BindingDB's records for doi:10.1016/0960-894X(96)00287-9 (1996).
